Where two headings read alike, the source gives them in different places.
How the values were obtained:
human FZD5 = assay: TOPFlash reporter gene assay in ΔFZD1–10 HEK293T cells transfected with HiBiT-FZD5; assay type: cell-based; settings: for IC50: Homo sapiens, HEK-293T, 300 ng/ml WNT-3A, HiBiT-FZD5
Nluc-FZD7 = molecular target: T1, Nluc-FZD7 (Homo sapiens, UniProt O75084); assay: BRET-based BODIPY-cyclopamine competition binding at Nluc-FZD7; settings: BODIPY-cyclopamine 200 nM; ΔFZD1-10 HEK293T cells; read-out: pIC50 (11) mean ± SEM, Nluc-FZD7 (converted)
T1 construct: expressed in transfected cells; host or cells: ΔFZD1–10 HEK293T cells
Experimental: After 24 h, cells were washed once with Hanks' balanced salt solution (HBSS), followed by the addition of 80 μl of HBSS. Next, 10 μl of the competitive ligand, that is, the tested SAG1.3 derivative (either in different concentrations for the concentration–response curves or at a final concentration of 10 μM for the first screens) and 10 μl of the fluorescent tracer BODIPY–cyclopamine (final concentration: 300 nM for the first screens, 200 nM for the concentration–response experiments) were added. All serial dilutions were prepared in HBSS. The cells were incubated for 90 min at 37 °C without additional CO2, after which 10 μl of luciferase substrate diluted in HBSS (furimazine; Promega, N1572, final dilution: 1:1000 for first screening) and coelenterazine h (Biosynth; final concentration: 5 μM for concentration–response experiments) were added to the cells. Following a 10 min incubation period in the dark, the measurement was started on a BMG Labtech ClarioStar or TECAN Spark multimode microplate reader, prewarmed to 37 °C. Nluc bioluminescence was detected between 460 and 490 nm (ClarioStar) or 460 and 500 nm (TECAN Spark). The emission of the fluorescent tracer was detected between 520 and 550 nm (ClarioStar) or between 520 and 560 nm (TECAN Spark). […]

FZD5–DEP–Clamp sensor = assay: FZD5–DEP–Clamp BRET sensor in stably expressing HEK293A cells; assay type: cell-based, human
Experimental: To generate the stable FZD5–DEP–Clamp cell line, HEK293A cells were seeded at a density of 500,000 cells/well in a 6-well plate. On the next day, the adherent cells were transfected with 2 μg of FZD5–DEP–Clamp (TK) plasmid using PEI as the transfection reagent. After 2 days of transfection, cells were detached and transferred to a 75 cm^2 flask. Stably transfected cells were selected using complete medium (DMEM + 10% fetal calf serum + 1% penicillin–streptomycin) supplemented with 2000 μg/ml G-418 sulfate (Gibco; catalog no.: 10131027) for 3 weeks. After obtaining stable growth, cell culture of the stable cell line was continued with 500 μg/ml G-418.
For kinetic experiments with the FZD5–DEP–Clamp sensor, BRET values were first baseline-corrected for every well separately by subtracting the average of the first three reads prior ligand addition. Afterward, the average values for vehicle-containing wells were subtracted for every timepoint to get access to actual ligand-induced changes in BRET ratio (ΔBRET values).
Figure S4. […] (A) Shown is the BRET time-course recorded upon addition of 30 µM compound 11 or vehicle (DMSO). […] The cell surface pool of transiently-transfected HiBiT-FZD5 (B) and HiBiT-FZD6 (C) was assessed by addition of recombinant LgBiT in combination with detection of NanoBiT luminescence. […]

[1] = test system: HiBiT-FZD4, HiBiT-FZD7 or HiBiT-FZD8; assay: TOPFlash reporter gene assay, test for paralog selectivity; settings: 10 µM compound; 300 ng/mL WNT-3A
Experimental: The transfected cell suspension was then seeded (45,000 cells/well) into a PDL-coated, white opaque 96-well plate. One day after transfection, cells were washed once with HBSS, and 80 μl of serum-free DMEM containing 10 nM of the porcupine inhibitor C59 were added. […] All ligands/vehicle controls were diluted in serum-free DMEM containing 10 nM C59. One day after ligand stimulation, cells were washed once with HBSS, and the lysis was started using 1× Passive Lysis Buffer (Promega; catalog no.: E1910, 20 μl/well), after which the plate was shaken for 20 min at room temperature. Fluc and Rluc bioluminescence were then assessed using the Dual-Luciferase Assay System (Promega; catalog no.: E1910, 20 μl of both LARII [Luciferase Assay II reagent] and 1× Stop-and-Glo Reagent). Measurements were performed using a TECAN Spark multimode microplate reader.
For reporter gene assays, the TOPFlash ratio was defined as the ratio of β-catenin-dependent gene transcription (Fluc) over a constitutively expressed transfection control (Rluc). For all experiments, the calculated TOPFlash ratios were normalized to the respective vehicle conditions.
Experiments were performed in ΔFZD1-10 HEK293T cells transiently transfected with HiBiT-FZD4 (A), HiBiT-FZD7 (B) or HiBiT-FZD8 (C). Data represent mean values ± SEM from three independent experiments performed in triplicate. […]

Structure (SMILES): CC(=O)Nc1cccc(C(=O)NC2CCC(N(Cc3cccc(-c4ccncc4)c3)C(=O)c3sc4ccccc4c3Cl)CC2)c1 (centres unmarked) [compound 11, N-((1r,4r)-4-(3-Acetamidobenzamido)cyclohexyl)-3-chloro-N-(3-(pyridin-4-yl)benzyl)benzo[b]thiophene-2-carboxamide]
- IC50 (human FZD5; equal to the pIC50, read-out: IC50, inhibition of WNT-3A-induced TOPFlash response): 1200 nM
- IC50 (human FZD5; read-out: pIC50, inhibition of WNT-3A-induced TOPFlash response (converted)): 1200 nM
- Effect on WNT surrogate-induced TOPFlash signal (human FZD5; WNT surrogate 250 pM, coaddition of compound): could also be blocked
- TOPFlash response to compound alone (human FZD5; absence of added WNT-3A): not inducing any effect
- IC50 (Nluc-FZD7): 891 nM
- Effect on WNT-induced FZD5–DEP–Clamp response (FZD5–DEP–Clamp sensor; 500 ng/ml high-purity WNT-3A with 30 μM compound): able to interfere with the WNT-induced effects
- BRET response of FZD5–DEP–Clamp, compound alone (FZD5–DEP–Clamp sensor; 30 µM compound, agonist mode): did not elicit a robust change in BRET response
- Subtype preference in TOPFlash assays [1]: did not show a subtype preference
